From patent US11457628B2, “Substituted pyrimidine compound and preparation method and use thereof” (SHENYANG SINOCHEM AGROCHEMICALS R&D CO., LTD., priority 2017, dated 2022)

Legend:
[1] = test system: cucumber anthrax; format: in vivo; details: dose 400 ppm
[2] = test system: wheat powdery mildew; assay: in vivo protective activity, pot determination, wheat powdery mildew
[3] = test system: rice blast; assay: microbe, parasite or virus in culture; format: cell-based; details: Pyricularia oryzae, 24 h, read-out: inhibition activity for rice blast
[4] = test system: cucumber downy mildew; assay: in vivo protective activity, pot determination, cucumber downy mildew
[5] = test system: green peach aphid; assay: activity against the green peach aphid, airbrush spray method; format: in vivo; details: 100 mg/L, after 48 hours
[6] = test system: corn rust; assay: in vivo protective activity, pot determination, corn rust
[7] = test system: Tetranychus cinnabarinus; assay: activity against Tetranychus cinnabarinus, airbrush spray method; details: 600 mg/L, after 72 hours

`Cc1c(OCC(C)Nc2ncnc3scc(Cl)c23)nn(C)c1-c1ccccc1` (centres unmarked) [Compound 21-4-1] was tested, and the “protective effect for the melon anthrax / cucumber anthrax” value [1] was 100%.

With `Cc1c(OCCNc2ncnc(C(F)F)c2Cl)nn(C)c1-c1ccc(Cl)cc1` [Compound 12-1-19] the “protective effect for control of wheat powdery mildew” value ([2]; dose 6.25 ppm) was “more than 80%” and the “protective effect for the melon anthrax / cucumber anthrax” value [1] was 100%.

In the case of `CCc1ncnc(OCCOc2nn(C)c(-c3ccccc3)c2C)c1Cl` [Compound 26-1-1], the “protective effect for the melon anthrax / cucumber anthrax” value [1] is reported as 100%.

`CCc1ncnc(NCc2cnn(-c3ccccc3)c2C)c1Cl` [CK1] gave an inhibition at 2.8 ppm [3] of 0%, an inhibition at 8.3 ppm [3] of 0% and an inhibition at 25 ppm [3] of 0%. The “Protective Activity (%), cucumber downy mildew” value ([4]; 25 mg/L) was 0%, the “Protective Activity (%), cucumber downy mildew” value ([4]; 50 mg/L) was 20% and the “Protective Activity (%), cucumber downy mildew” value ([4]; 100 mg/L) was 95%. The “Protective Activity (%), cucumber downy mildew” value ([4]; 400 mg/L) was 100% and the “Lethality to Green Peach Aphid (%)” value [5] was 0%.

With `Cn1nc(OCCNc2ncnc3scc(Cl)c23)cc1-c1ccc(Cl)cc1Cl` [Compound 21-21] the “protective effect for the melon anthrax / cucumber anthrax” value [1] was 100%.

Compound `Cc1nc(C)c(C)c(N(C)Cc2cnn(-c3ccccc3)c2)n1` [CK3] has an inhibition at 2.8 ppm [3] of 0%, an inhibition at 8.3 ppm [3] of 0% and an inhibition at 25 ppm [3] of 0%. The “Protective Activity (%), cucumber downy mildew” value ([4]; 50 mg/L) was 0%, the “Protective Activity (%), cucumber downy mildew” value ([4]; 100 mg/L) was 30% and the “Protective Activity (%), cucumber downy mildew” value ([4]; 400 mg/L) was 100%. For the same compound, the “Protective Activity (%), wheat powdery mildew” value ([2]; 400 mg/L) was 0%, the “Protective Activity (%), corn rust” value ([6]; 6.25 mg/L) was 0% and the “Protective Activity (%), corn rust” value ([6]; 25 mg/L) was 0%. The “Protective Activity (%), corn rust” value ([6]; 100 mg/L) was 20%, the “Protective Activity (%), corn rust” value ([6]; 400 mg/L) was 60% and the “protective effect for the melon anthrax / cucumber anthrax” value [1] was 0%. For the same compound, the “Lethality to Green Peach Aphid (%)” value [5] was 30% and the “Lethality to Tetranychus Cinnabarinus (%)” value [7] was 56%.

Work on `Cc1cc(N(C)Cc2cnn(-c3ccccc3)c2)nc(C(C)C)n1` [CK4] yielded an inhibition at 2.8 ppm [3] of 0%, an inhibition at 8.3 ppm [3] of 0% and an inhibition at 25 ppm [3] of 0%. For the same compound, the “Protective Activity (%), cucumber downy mildew” value ([4]; 50 mg/L) was 0%, the “Protective Activity (%), cucumber downy mildew” value ([4]; 100 mg/L) was 40% and the “Protective Activity (%), cucumber downy mildew” value ([4]; 400 mg/L) was 100%. The “Protective Activity (%), wheat powdery mildew” value ([2]; 400 mg/L) was 0%, the “Protective Activity (%), corn rust” value ([6]; 6.25 mg/L) was 0% and the “Protective Activity (%), corn rust” value ([6]; 25 mg/L) was 0%. The “Protective Activity (%), corn rust” value ([6]; 100 mg/L) was 0%, the “Protective Activity (%), corn rust” value ([6]; 400 mg/L) was 40% and the “protective effect for the melon anthrax / cucumber anthrax” value [1] was 0%. For the same compound, the “Lethality to Green Peach Aphid (%)” value [5] was 0% and the “Lethality to Tetranychus Cinnabarinus (%)” value [7] was 59%.

With `Cc1c(OCCNc2ncnc(C(F)F)c2Cl)nn(C)c1-c1ccccc1` [Compound 12-1-1] the “protective effect for the melon anthrax / cucumber anthrax” value [1] was 100%.

With `CCc1ncnc(NCCOc2nn(C)c(-c3ccc(Cl)cc3)c2C)c1Cl` [Compound 11-1-19] the “protective effect for the melon anthrax / cucumber anthrax” value [1] was 100%.

`Cc1ncnc(NCCOc2cc(-c3ccc(Cl)cc3Cl)n(C)n2)c1Cl` [Compound 10-21] was tested, and the “protective effect for the melon anthrax / cucumber anthrax” value [1] was 100%.

In the case of `Cn1nc(OCCNc2ncnc3ccccc23)cc1-c1ccc(Br)cc1` [Compound 19-34], the inhibition at 25 ppm [3] is reported as greater than 80%.

`Cc1c(OCCCNc2ncnc(C(F)F)c2Cl)nn(C)c1-c1ccccc1` [Compound 12-3-1] showed an inhibition at 2.8 ppm [3] greater than 80%, an inhibition at 8.3 ppm [3] greater than 80% and an inhibition at 25 ppm [3] greater than 80%.

In the case of `Cc1c(OCCNc2ncnc3scc(Cl)c23)nn(C)c1-c1ccc(F)cc1` [Compound 21-1-4], the “protective effect for the melon anthrax / cucumber anthrax” value [1] is reported as 100%.

With `Cc1c(OCC(C)Nc2ncnc3ccccc23)nn(C)c1-c1ccccc1` (centres unmarked) [Compound 19-4-1] the “protective effect for the melon anthrax / cucumber anthrax” value [1] was 100%.

`Cc1c(OCCNc2ncnc3ccccc23)nn(C)c1-c1ccc(F)cc1` [Compound 19-1-4] was tested, and the “protective effect for the melon anthrax / cucumber anthrax” value [1] was 100%.

For `CCc1ncnc(NCc2cnn(-c3ccccc3)c2C(F)(F)F)c1Cl` [CK2], the inhibition at 2.8 ppm [3] was 0%, the inhibition at 8.3 ppm [3] was 0% and the inhibition at 25 ppm [3] was 0%. For the same compound, the “Protective Activity (%), cucumber downy mildew” value ([4]; 25 mg/L) was 0%, the “Protective Activity (%), cucumber downy mildew” value ([4]; 50 mg/L) was 20% and the “Protective Activity (%), cucumber downy mildew” value ([4]; 100 mg/L) was 75%. For the same compound, the “Protective Activity (%), cucumber downy mildew” value ([4]; 400 mg/L) was 100%, the “Protective Activity (%), wheat powdery mildew” value ([2]; 6.25 mg/L) was 0% and the “Protective Activity (%), wheat powdery mildew” value ([2]; 25 mg/L) was 20%. For the same compound, the “Protective Activity (%), wheat powdery mildew” value ([2]; 100 mg/L) was 50% and the “Protective Activity (%), wheat powdery mildew” value ([2]; 400 mg/L) was 100%.

`Cc1nc(Cl)cc(N(C)Cc2c(C)nn(-c3ccccc3)c2C)n1` [CK5] gave an inhibition at 2.8 ppm [3] of 0%, an inhibition at 8.3 ppm [3] of 0% and an inhibition at 25 ppm [3] of 0%. The “Protective Activity (%), cucumber downy mildew” value ([4]; 400 mg/L) was 85%, the “Protective Activity (%), wheat powdery mildew” value ([2]; 400 mg/L) was 0% and the “Protective Activity (%), corn rust” value ([6]; 6.25 mg/L) was 20%. For the same compound, the “Protective Activity (%), corn rust” value ([6]; 25 mg/L) was 60%, the “Protective Activity (%), corn rust” value ([6]; 100 mg/L) was 70% and the “Protective Activity (%), corn rust” value ([6]; 400 mg/L) was 98%. For the same compound, the “protective effect for the melon anthrax / cucumber anthrax” value [1] was 0%, the “Lethality to Green Peach Aphid (%)” value [5] was 22% and the “Lethality to Tetranychus Cinnabarinus (%)” value [7] was 58%.
